Results on ten compounds are retold here after patent US8338598B2, “Herbicidal pyrido[2,3-B]pyrazines and their use as herbicides” (Syngenta Limited, priority 2008, dated 2012).

What all share (assay type): in vivo
Holding throughout (conditions): evaluated after 13 days, 10=total damage to plant, 0=no damage to plant

Test [1] deals with Amaranthus retroflexus. As to the kind of experiment: Example B2 herbicidal action, pre-emergence, pots in glasshouse. As to the method:
(§1) Seeds of a variety of test species were sown in standard soil in pots. After cultivation for one day (pre-emergence) or after 8 days cultivation (post-emergence) under controlled conditions in a glasshouse (at 24/16° C., day/night; 14 hours light; 65% humidity), the plants were sprayed with an aqueous spray solution derived from the formulation of the technical active ingredient in acetone/water (50:50) solution containing 0.5% Tween 20 (polyoxyethelyene sorbitan monolaurate, CAS RN 9005-64-5). The test plants were then grown in a glasshouse under controlled conditions in a glasshouse (at 24/16° C., day/night; 14 hours light; 65% humidity) and watered twice daily. After 13 days, the test was evaluated (10=total damage to plant; 0=no damage to plant).

Test [2] deals with Echinochloa crus-galli. The description is as above. The protocol: as §1
Test [3] has as its system Ipomea hederaceae. The test is described as above. The protocol: as §1
For test [4], the system named is Setaria faberi. The description is as above. As to the method: as §1
For test [5], the system named is Solanum nigrum. The test is described as above. The protocol: as §1
For test [6], the system named is Amaranthus retroflexus. As to the kind of experiment: Example B2 herbicidal action, post-emergence, pots in glasshouse. The protocol:
as §1

Test [7] concerns Echinochloa crus-galli. The description is as above. As to the method:
as §1

Test [8] concerns Ipomea hederaceae. Described as above. The protocol: as §1
Test [9] concerns Setaria faberi. The test is described as above. The protocol:
as §1

For test [10], the system named is Solanum nigrum. Described as above. As to the method: as §1

In the case of `Cn1nc(C(F)(F)F)c(-c2c(O)c3nccnc3n(CC(F)F)c2=O)c1OC(F)F` [Compound B25, 7-(5-difluoromethoxy-1-methyl-3-trifluoromethyl-1H-pyrazol-4-yl)-5-(2,2-difluoro-ethyl)-8-hydroxy-5H-pyrido[2,3-b]pyrazin-6-one], the “AMARE, damage to plant” value in test [1] (1000 g/ha) is 10; in test [6] (1000 g/ha) it was 8. The “ECHCG, damage to plant” value in test [2] (1000 g/ha) and in test [7] (1000 g/ha) was 8 throughout. The “IPOHE, damage to plant” value in [3] (1000 g/ha) turned out to be 6; in [8] (1000 g/ha), 8. The “SETFA, damage to plant” value in [4] (1000 g/ha) and in test [9] (1000 g/ha) was 8 in each case. The entries for the “SOLNI, damage to plant” value in test [5] (1000 g/ha) and in test [10] (1000 g/ha) were 7 and 10, respectively.
As for `CC(C)(C)C(=O)Oc1c(-c2cnc(Cl)cc2Cl)c(=O)n(CC(F)F)c2nccnc12` [Compound A20, 2,2-Dimethyl-propionic acid 7-(4,6-dichloro-pyrid-3-yl)-5-(2,2-difluoro-ethyl)-6-oxo-5,6-dihydro-pyrido[2,3-b]pyrazin-8-yl ester], the “AMARE, damage to plant” value turned out to be 1 in test [1] (250 g/ha) and 10 in test [6] (250 g/ha). The “ECHCG, damage to plant” value was 3 in [2] (250 g/ha) and 7 in [7] (250 g/ha). The “IPOHE, damage to plant” value in [3] (250 g/ha) worked out at 0; in test [8] (250 g/ha) it was 10. Moreover, the “SETFA, damage to plant” value is given as 0 in [4] (250 g/ha) and 2 in [9] (250 g/ha). Also, the “SOLNI, damage to plant” value is 1 in test [5] (250 g/ha) and 10 in test [10] (250 g/ha).
With `CC(C)C(=O)Oc1c(-c2nn(C)nc2C(F)(F)F)c(=O)[nH]c2nccnc12` [Compound B28], the “AMARE, damage to plant” value in [1] (1000 g/ha) is on record as 7; in [6] (1000 g/ha), 0. For the same compound, the “ECHCG, damage to plant” value in [2] (1000 g/ha) and in [7] (1000 g/ha) was 0 throughout. For the same compound, the “IPOHE, damage to plant” value in [3] (1000 g/ha) and in test [8] (1000 g/ha) was 0 in each case. The “SETFA, damage to plant” value worked out at 0 in [4] (1000 g/ha) and 1 in test [9] (1000 g/ha). In addition, the “SOLNI, damage to plant” value worked out at 0 in [5] (1000 g/ha) and 1 in test [10] (1000 g/ha).
For `CC(C)(C)C(=O)Oc1c(-c2c(Cl)cncc2Cl)c(=O)n(CC(F)F)c2nccnc12` [Compound A11, 2,2-Dimethyl-propionic acid 7-(3,5-dichloro-pyrid-4-yl)-5-(2,2-difluoro-ethyl)-6-oxo-5,6-dihydro-pyrido[2,3-b]pyrazin-8-yl ester], the “AMARE, damage to plant” value in test [1] (1000 g/ha) came out at 8; in test [6] (1000 g/ha) it was 9. The “ECHCG, damage to plant” value in [2] (1000 g/ha) and in test [7] (1000 g/ha) was 8 in each case. The “IPOHE, damage to plant” value in [3] (1000 g/ha) was determined as 5; in test [8] (1000 g/ha), 8. The entries for the “SETFA, damage to plant” value in test [4] (1000 g/ha) and in test [9] (1000 g/ha) were 7 and 8, respectively. For the same compound, the “SOLNI, damage to plant” value in test [5] (1000 g/ha) and in test [10] (1000 g/ha) was 8 in each case.
As for `Cn1nc(-c2c(O)c3nccnc3n(CC(F)F)c2=O)c(C(F)(F)F)n1` [Compound B30], the “AMARE, damage to plant” value in [1] (1000 g/ha) is listed as 7; in test [6] (1000 g/ha) it was 9. For the same compound, the “ECHCG, damage to plant” value is 1 in test [2] (1000 g/ha) and 6 in [7] (1000 g/ha). For the same compound, the “IPOHE, damage to plant” value in test [3] (1000 g/ha) came to 3; in [8] (1000 g/ha), 8. The “SETFA, damage to plant” value in test [4] (1000 g/ha) was 2; in test [9] (1000 g/ha), 7. Further, the “SOLNI, damage to plant” value in test [5] (1000 g/ha) worked out at 2; in test [10] (1000 g/ha) it was 9.
Turning to `CC(C)C(=O)Oc1c(-c2ccc(C(F)(F)F)nc2Cl)c(=O)n(CC(F)F)c2nccnc12` [Compound A30], the “AMARE, damage to plant” value in test [1] (250 g/ha) is on record as 1; in [6] (250 g/ha), 9. Moreover, the “ECHCG, damage to plant” value is 3 in test [2] (250 g/ha) and 1 in test [7] (250 g/ha). The “IPOHE, damage to plant” value stood at 0 in test [3] (250 g/ha) and 6 in [8] (250 g/ha). Further, the “SETFA, damage to plant” value was 0 in [4] (250 g/ha) and 4 in test [9] (250 g/ha). Besides, the entries for the “SOLNI, damage to plant” value in test [5] (250 g/ha) and in test [10] (250 g/ha) were 1 and 6, respectively.
Consider `CC(C)(C)C(=O)Oc1c(-c2ccc(Cl)nc2Cl)c(=O)[nH]c2nccnc12` [Compound A14, 2,2-dimethyl-propionic acid 7-(2,6-dichloro-pyrid-3-yl)-6-oxo-5,6-dihydro-pyrido[2,3-b]pyrazin-8-yl ester], for which the entries for the “AMARE, damage to plant” value in [1] (1000 g/ha) and in test [6] (1000 g/ha) were 0 and 5, respectively. For the same compound, the “ECHCG, damage to plant” value came out at 4 in test [2] (1000 g/ha) and 6 in [7] (1000 g/ha). The figures for the “IPOHE, damage to plant” value in test [3] (1000 g/ha) and in test [8] (1000 g/ha) were 0 and 4, respectively. Moreover, the “SETFA, damage to plant” value came to 2 in test [4] (1000 g/ha) and 7 in test [9] (1000 g/ha). The “SOLNI, damage to plant” value in [5] (1000 g/ha) was found to be 0; in [10] (1000 g/ha), 7.
For `CCn1c(=O)c(-c2c(Cl)cncc2Cl)c(OC(=O)C(C)(C)C)c2nccnc21` [Compound A10, 2,2-Dimethyl-propionic acid 7-(3,5-dichloro-pyrid-4-yl)-5-ethyl-6-oxo-5,6-dihydro-pyrido[2,3-b]pyrazin-8-yl ester], the entries for the “AMARE, damage to plant” value in [1] (1000 g/ha) and in [6] (1000 g/ha) were 0 and 9, respectively. Also, the “ECHCG, damage to plant” value in test [2] (1000 g/ha) came out at 5; in test [7] (1000 g/ha) it was 7. In addition, the entries for the “IPOHE, damage to plant” value in test [3] (1000 g/ha) and in [8] (1000 g/ha) were 2 and 8, respectively. Moreover, the “SETFA, damage to plant” value in [4] (1000 g/ha) came out at 1; in test [9] (1000 g/ha), 6. For the same compound, the “SOLNI, damage to plant” value in test [5] (1000 g/ha) worked out at 2; in [10] (1000 g/ha), 9.
For `CC(C)(C)C(=O)Oc1c(-c2ccc(Cl)nc2Cl)c(=O)n(CC(F)F)c2nccnc12` [Compound A16, 2,2-dimethyl-propionic acid 7-(2,6-dichloro-pyrid-3-yl)-5-(2,2-difluoro-ethyl)-6-oxo-5,6-dihydro-pyrido[2,3-b]pyrazin-8-yl ester], the “AMARE, damage to plant” value in test [1] (1000 g/ha) worked out at 0; in test [6] (1000 g/ha), 10. For the same compound, the “ECHCG, damage to plant” value came out at 2 in [2] (1000 g/ha) and 6 in test [7] (1000 g/ha). Moreover, the “IPOHE, damage to plant” value in [3] (1000 g/ha) came to 2; in [8] (1000 g/ha) it was 7. The “SETFA, damage to plant” value in test [4] (1000 g/ha) is recorded as 0; in test [9] (1000 g/ha) it was 6. Besides, the “SOLNI, damage to plant” value is reported as 5 in test [5] (1000 g/ha) and 9 in test [10] (1000 g/ha).
For `O=c1c(-c2cnc(Cl)cc2Cl)c(O)c2nccnc2n1CC(F)F` [Compound A19, 7-(4,6-Dichloro-pyrid-3-yl)-5-(2,2-difluoro-ethyl)-8-hydroxy-5H-pyrido[2,3-b]pyrazin-6-one], the “AMARE, damage to plant” value is recorded as 7 in [1] (1000 g/ha) and 10 in test [6] (1000 g/ha). Moreover, the figures for the “ECHCG, damage to plant” value in test [2] (1000 g/ha) and in test [7] (1000 g/ha) were 5 and 6, respectively. For the same compound, the “IPOHE, damage to plant” value in test [3] (1000 g/ha) is on record as 1; in test [8] (1000 g/ha), 8. In addition, the “SETFA, damage to plant” value in test [4] (1000 g/ha) is 0; in [9] (1000 g/ha) it was 4. Further, the “SOLNI, damage to plant” value in [5] (1000 g/ha) was 0; in test [10] (1000 g/ha), 10.
